We go through 22 compounds from ChEMBL document CHEMBL1147527, “Parallel synthesis of DAPT derivatives and their gamma-secretase-inhibitory activity” (Bioorg Med Chem Lett, 2004).

Test [1] deals with Gamma-secretase (Homo sapiens) (UniProt Q96BI3+Q9NZ42+Q8WW43+P49768+Q92542+P49810). The experiment in a line: (§1) Inhibitory activity against gamma-secretase relative to DAPT. The class given is protein-complex assay.
The target in test [2] is T1, Gamma-secretase subunit PEN-2 (Homo sapiens, UniProt Q9NZ42). The test is described as §1.
T1 sequence (Q9NZ42 whole entry): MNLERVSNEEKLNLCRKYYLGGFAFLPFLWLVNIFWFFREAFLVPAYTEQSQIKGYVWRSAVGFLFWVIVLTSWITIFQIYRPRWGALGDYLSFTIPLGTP
Test [3] deals with T1, Gamma-secretase subunit PEN-2. The test can be described thus: Inhibitory activity against gamma-secretase at concentration of 10 uM; not active.
For test [4] the target is unchanged. The experiment in a line: Inhibitory activity against gamma-secretase.

The source made the active and inactive calls. The calls are words filed in the database; no cut-off is given here.

Consider `C[C@H](NC(=O)Cc1cc(F)cc(F)c1)C(=O)N[C@@H](Cc1ccccc1)C(=O)NCc1ccc(Br)cc1`, for which, in test [1], the Relative activity stood at 0.6. On to `C[C@H](NC(=O)Cc1cc(F)cc(F)c1)C(=O)N[C@@H](Cc1ccccc1)C(=O)NCc1ccc(C(=O)c2ccccc2)cc1`, for which the Relative activity in test [1] is 30. Regarding `CCCCNC(=O)[C@H](Cc1ccccc1)NC(=O)[C@H](C)NC(=O)Cc1cc(F)cc(F)c1`, the Relative activity in test [2] was found to be 0.3. On to `C[C@H](NC(=O)Cc1ccccc1Br)C(=O)N[C@@H](Cc1ccccc1)C(=O)OC(C)(C)C`, for which the result in test [3] was inactive. `C[C@H](NC(=O)Cc1ccccc1O)C(=O)N[C@@H](Cc1ccccc1)C(=O)OC(C)(C)C`: the result in test [3] was inactive.

In the case of `C[C@H](NC(=O)Cc1cc(F)cc(F)c1)C(=O)N[C@@H](Cc1ccccc1)C(=O)NCc1ccccc1Br`, the Relative activity in test [1] was 0.3. Same read-out and setting: as for `COC(=O)c1ccc(CNC(=O)[C@H](Cc2ccccc2)NC(=O)[C@H](C)NC(=O)Cc2cc(F)cc(F)c2)cc1`, the figure is 0.6. The compound `C[C@H](NC(=O)Cc1cc(F)cc(F)c1)C(=O)N[C@@H](Cc1ccccc1)C(=O)NCc1ccccc1` yielded a Relative activity in test [2] of 1. For the compound `C[C@H](NC(=O)Cc1cccc(Br)c1)C(=O)N[C@@H](Cc1ccccc1)C(=O)OC(C)(C)C`, in test [3], the outcome was inactive. `COc1ccccc1CNC(=O)[C@H](Cc1ccccc1)NC(=O)[C@H](C)NC(=O)Cc1cc(F)cc(F)c1` showed a Relative activity in test [1] of 0.2. In the case of `C[C@H](NC(=O)Cc1cc(F)cc(F)c1)C(=O)N[C@@H](Cc1ccccc1)C(=O)NCc1ccc(Cl)cc1`, the Relative activity in test [1] turned out to be 0.6.

Compound `C[C@H](NC(=O)Cc1cc(F)cc(F)c1)C(=O)N[C@@H](Cc1ccccc1)C(=O)NCc1cccc(Br)c1` had a Relative activity in test [1] of 0.1. Still for that read-out and setting: as for `C[C@H](NC(=O)Cc1cc(F)cc(F)c1)C(=O)N[C@@H](Cc1ccccc1)C(=O)NCc1cccc(Cl)c1`, the figure is 0.1. For the compound `C[C@H](NC(=O)Cc1cc(F)cc(F)c1)C(=O)N[C@@H](Cc1ccccc1)C(=O)NC(c1ccccc1)c1ccccc1`, in test [2], the Relative activity came out at 1. `COc1cccc(CNC(=O)[C@H](Cc2ccccc2)NC(=O)[C@H](C)NC(=O)Cc2cc(F)cc(F)c2)c1` registered a Relative activity in test [1] of 0.1. With `C[C@H](NC(=O)Cc1ccc(Br)cc1)C(=O)N[C@@H](Cc1ccccc1)C(=O)OC(C)(C)C`, the result in test [3] was inactive. Turning to `C[C@H](NC(=O)Cc1cc(F)cc(F)c1)C(=O)N[C@@H](Cc1ccccc1)C(=O)NCc1ccc(F)cc1`, in test [1], the Relative activity stood at 0.1. Broadly, the IC50 is the midpoint of a concentration-inhibition curve. High values mean weaker potency in that assay, low ones greater potency in that assay. Turning to `C[C@H](NC(=O)Cc1cc(F)cc(F)c1)C(=O)N[C@@H](Cc1ccccc1)C(=O)OC(C)(C)C`, the Relative activity in test [2] is 1. The compound also showed an IC50 in test [4] of 50 nM. `C[C@H](NC(=O)Cc1cc(F)cc(F)c1)C(=O)N[C@@H](Cc1ccccc1)C(=O)NCc1ccccc1Cl` showed a Relative activity in test [1] of 0.1. With `C[C@H](NC(=O)Cc1cccc(O)c1)C(=O)N[C@@H](Cc1ccccc1)C(=O)OC(C)(C)C`, the result in test [3] was inactive. The same measure, in the same setting: as for `C[C@H](NC(=O)Cc1ccc(O)cc1)C(=O)N[C@@H](Cc1ccccc1)C(=O)OC(C)(C)C`, the entry is “inactive”. Consider `COc1ccc(CNC(=O)[C@H](Cc2ccccc2)NC(=O)[C@H](C)NC(=O)Cc2cc(F)cc(F)c2)cc1`, for which the Relative activity in test [1] came to 0.4.
